Experimental data from patent publication EP2527323A1, “Urea carbonyl disulfide derivatives and their therapeutic uses” (NOSCIRA, S.A., priority 2011, dated 2012).

Tests used:
[1] = test system: Ser-396 residue of Tau protein in human neuroblastoma SH-SY5Y cells; test: Cellular assay: phosphorylation at Ser-396 of Tau protein (ELISA); assay type: cell-based; details: 18 h incubation at 37°C, 1% DMSO, normalized to untreated cells, read-out: pS*er396-Tau average EC50
Description: The effect of the compound in cells is determined by monitoring the level of phosphorylation at the Ser-396 residue of Tau protein in human neuroblastoma SH-SY5Y cells. Cells are grown in 96-well plates: 30,000 cells per well in a volume of 100 µl of 1:1 MEM:Ham's F12 medium including 10% (v/v) fetal bovine serum, 100 U/ml penicillin, 100 µg/ml streptomycin and 1% (v/v) 100-fold concentrated commercial stock of non-essential aminoacids (Gibco, Carlsbad, CA, USA), and incubated at 37°C during 24 h. Then, the corresponding amount of test compound is added to the wells to reach the desired concentration in 1% (v/v) DMSO. The system is incubated at 37°C during 18 h and afterwards cells are harvested, washed with phosphate buffer saline and incubated during 30 min on ice with 120 µl per well of "lysis buffer" (10 mM Tris-HCl pH 7.4, 100 mM NaCl, 1 mM EDTA, 2 mM sodium orthovanadate, 1% (v/v) Triton X-100, 10% (v/v) glycerol, 0.1% (w/v) sodium dodecyl sulfate, 0.5 % (w/v) sodium deoxycholate, 4% (v/v) 25-fold concentrated commercial stock of protease inhibitors (Roche, Basel, Switzerland) and 1 mM phenylmethylsulfonyl fluoride). 60 µl of this mixture is then placed in an empty 96-well plate and the levels of Ser-396 phosphorylation are determined using a commercial ELISA kit (Biosource, Carlsbad, CA, USA), following manufacturer's instructions. The levels of phosphorylation are expressed as percentage values, after normalizing them to those in untreated cells and those values are used to calculate EC50s, as described above for GSK-3.

[2] = target: T1, human recombinant GSK3β (Homo sapiens, UniProt P49841); test: GSK-3β assay (Z'-LYTE FRET enzymatic activity); assay type: biochemical; details: 2 nM enzyme (N-terminal 6His-tagged, H350L mutation), 12.5 µM ATP, 2 µM Ser/Thr 9 peptide, 60 min at room temperature, 1% DMSO; read-out: GSK3β inhibition average EC50
T1 construct: 6His (N); purchased Millipore (Billerica, MA, USA)
Description: The enzymatic activity of GSK3β was determined with a commercial system based on the Z'-LYTE® technology, available from Invitrogen Life Technologies (Carlsbad, CA, USA), using human recombinant GSK3β (N-terminal 6His-tagged recombinant enzyme with an H350L mutation) from Millipore (Billerica, MA, USA) as the enzyme source. This technology utilizes the fluorescence resonance energy transfer ("FRET") process between fluorescein and coumarin. The assay principle is based on the differential sensitivity of phosphorylated and non-phosphorylated peptide to proteolytic cleavage, which precludes the energy transfer process between the two fluorophores attached to both sides of the cleavage site. […] The latter is a synthetic peptide, provided by Invitrogen under the commercial name "Ser/Thr 9 peptide", and it is based upon the sequence of a GSK3β substrate protein (glycogen synthase I) containing Ser-641. The peptide is labeled at both ends with fluorescein and coumarin. The assay is carried out in the presence of different concentrations of the tested compound, at a final 1% (v/v) DMSO concentration. After a 60 min incubation at room temperature, 5 µl of a commercial protease solution (sold by the same vendor in the assay kit) is added and a subsequent 1h incubation at room temperature is performed, before adding 5 µl of a suitable "stop solution", also provided by the vendor in the kit. After that, fluorescence intensity is recorded, monitoring emission at both 445 and 520 nm, upon excitation at 400 nm. An emission ratio is finally calculated, using the quotient among the emission at 445 nm divided by that at 520 nm.
The emission ratio of each tested sample is normalized to that of the control wells, so that for every compound concentration the percentage of inhibition is calculated by using the following equation: % Inhibition = 100⋅(E-S)/(E-B) [formula] wherein "S" is the emission ratio of the sample being considered, "E" is the average emission ratio of wells, including enzyme in the absence of inhibitors, and "B" is the average emission ratio of wells without enzyme. The inhibition values obtained at every compound concentration are finally used to calculate the EC50 of the tested compound, this parameter being the concentration of the compound which causes 50% of inhibition. For that purpose, the data were fitted to a classical 4-parameters isotherm equation using the nonlinear regression function of GraphPad™ Prism 5.0 (GraphPad Software Inc.). Such equation is described below: % Inhibition = L + (H-L)/(1 + (((EC50)/(C)))^n) [formula] wherein "L" is the lower asymptote of the theoretical sigmoidal curve, "H" is the higher asymptote, "C" is the concentration of compound and "n" is the Hill coefficient.

T1 sequence (P49841 whole entry): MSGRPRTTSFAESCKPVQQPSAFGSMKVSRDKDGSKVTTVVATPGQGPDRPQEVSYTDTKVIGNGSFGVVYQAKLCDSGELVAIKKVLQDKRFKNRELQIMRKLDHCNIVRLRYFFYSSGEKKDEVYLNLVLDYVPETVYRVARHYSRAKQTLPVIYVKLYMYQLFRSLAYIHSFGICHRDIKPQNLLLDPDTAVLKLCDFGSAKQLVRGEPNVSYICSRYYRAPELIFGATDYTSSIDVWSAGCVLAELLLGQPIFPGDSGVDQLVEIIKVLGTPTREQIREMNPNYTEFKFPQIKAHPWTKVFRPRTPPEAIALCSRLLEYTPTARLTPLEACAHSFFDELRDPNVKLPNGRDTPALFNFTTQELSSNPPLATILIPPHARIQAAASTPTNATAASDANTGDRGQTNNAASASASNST

Row | SMILES | EC50 [2] | EC50 [1]
1 | O=C(Nc1cccc2ccccc12)N(Cc1ccccc1)C(=O)SSCCc1ccccc1 [Compound 4, 1-Benzyl-1-(5-phenyl-pentan-2,3-dithia-1-oyl)-3-naphthalen-1-yl-urea] | 58 nM | 6.61 µM
2 | O=C(Nc1cccc2ccccc12)N(Cc1ccccc1)C(=O)SSC1CCCC1 [Compound 5, 1-Benzyl-1-(3-cyclopentyl-propion-2,3-dithia-1-oyl)-3-naphthalen-1-yl-urea] | 125 nM | –
3 | CCCCSSC(=O)N(Cc1ccccc1)C(=O)Nc1cccc2ccccc12 [Compound 2, 1-Benzyl-1-heptan-2,3-dithia-1-oyl-3-naphthalen-1-yl-urea] | 66 nM | –
4 | C=CCSSC(=O)N(Cc1ccccc1)C(=O)Nc1cccc2ccccc12 [Compound 1, 1-Benzyl-1-hex-2,3-dithia-5-enoyl-3-naphthalen-1-yl-urea] | 708 nM | –
5 | COC(=O)C(CSSC(=O)N(Cc1ccccc1)C(=O)Nc1cccc2ccccc12)NC(C)=O (centres unmarked) [Compound 11, 2-Acetylamino-6-(1-benzyl-3-naphthalen-1-yl-ureido)-4-5-dithia-6-oxo-hexanoic acid methyl ester] | 104 nM | –
6 | O=C(Nc1cccc2ccccc12)N(Cc1ccccc1)C(=O)SSCc1ccccc1 [Compound 6, 1-Benzyl-3-naphthalen-1-yl-1-(4-phenyl-butyr-2,3-dithia-1-oyl)-urea] | 229 nM | 6.76 µM
7 | CC(C)C(C)SSC(=O)N(Cc1ccccc1)C(=O)Nc1ccc(Oc2ccccc2)cc1 (centres unmarked) [Compound 9, 1-Benzyl-1-(hexan-2,5-dithia-4,5-dimethyl-1-yl)-3-(4-phenoxy-phenyl)-urea] | 35 nM | –
8 | CC(C)C(C)SSC(=O)N(Cc1ccccc1)C(=O)Nc1cccc2ccccc12 (centres unmarked) [Compound 3, 1-Benzyl-1-(4,5 dimethy-hexan-2,3-dithia-1-oyl)-3-naphthalen-1-yl-urea] | 161 nM | –
9 | O=C(Nc1ccc2c(c1)OCO2)N(Cc1ccccc1)C(=O)SSC1CCCC1 [Compound 7, 3-Benzo[1,3]dioxol-5-yl-1-benzyl-1-(1-propion-2,3-dithia-3-cyclopentyl-1-yl)-urea] | 82 nM | –

Now from value to compound, other results behind:

Row | EC50 [2] | SMILES | EC50 [1]
10 | 295 nM | CCCCCSSC(=O)N(Cc1ccccc1)C(=O)NCc1ccccc1 [Compound 10, 1,3-Dibenzyl-1-(octan-2,3-dithia-1-oyl)-urea] | 7.08 µM
11 | 339 nM | CCSSC(=O)N(C(=O)N(C)C)c1cccc(C(F)(F)F)c1 [Compound 13] | –
12 | 97 nM | CCOC(=O)CNC(=O)N(CC(=O)OCC)C(=O)SSCCc1ccccc1 [Compound 8, [3-Ethoxycarbonylmethyl-3-(pentan-2,3-dithia-5-phenyl-1-yl)-ureido]-acetic acid ethyl ester] | –
13 | 8320 nM | CCN(CC)C(=O)N(C(=O)SSCc1ccccc1)c1cc(F)cc(F)c1 [Compound 12] | –
14 | 1660 nM | O=C(Nc1cccc2ccccc12)N(Cc1ccccc1)C(=O)SS [Compound 15, Benzyl-(N-Naphthalen-1-yl-formamide)-carbamoyl sodium dithioperoxol] | –
